# Test results as given in ChEMBL document CHEMBL1156613, “Potent and selective pyrazole-based inhibitors of B-Raf kinase” (Bioorg Med Chem Lett, 2008).
# Activity calls are given as the source filed them. The rule behind the calls is not given here.
# Columns and labels:
# [1] = target: Serine/threonine-protein kinase B-raf (Homo sapiens, UniProt P15056); assay: Inhibition of human recombinant B-Raf by fluorescence anisotropy
# [2] = target: Mitogen-activated protein kinase; ERK1/ERK2 (Homo sapiens, UniProt P27361+P28482); assay: Inhibition of ERK1/2 phosphorylation in human MALME3M cells; type: cell-based
# [3] = Aqueous solubility at pH 6.5 by shake-flask method; type: physicochemical; conditions: aqueous medium
# Mus musculus = assay: Inhibition of ERK phosphorylation in human LOX tumor xenografted mouse at 25 mg/kg, po after 1 hrs by Western blot method; type: functional, organism-based; parameters: dose 25 mg/kg
# Serine/threonine-protein kinase B-raf, sequence (P15056 whole entry): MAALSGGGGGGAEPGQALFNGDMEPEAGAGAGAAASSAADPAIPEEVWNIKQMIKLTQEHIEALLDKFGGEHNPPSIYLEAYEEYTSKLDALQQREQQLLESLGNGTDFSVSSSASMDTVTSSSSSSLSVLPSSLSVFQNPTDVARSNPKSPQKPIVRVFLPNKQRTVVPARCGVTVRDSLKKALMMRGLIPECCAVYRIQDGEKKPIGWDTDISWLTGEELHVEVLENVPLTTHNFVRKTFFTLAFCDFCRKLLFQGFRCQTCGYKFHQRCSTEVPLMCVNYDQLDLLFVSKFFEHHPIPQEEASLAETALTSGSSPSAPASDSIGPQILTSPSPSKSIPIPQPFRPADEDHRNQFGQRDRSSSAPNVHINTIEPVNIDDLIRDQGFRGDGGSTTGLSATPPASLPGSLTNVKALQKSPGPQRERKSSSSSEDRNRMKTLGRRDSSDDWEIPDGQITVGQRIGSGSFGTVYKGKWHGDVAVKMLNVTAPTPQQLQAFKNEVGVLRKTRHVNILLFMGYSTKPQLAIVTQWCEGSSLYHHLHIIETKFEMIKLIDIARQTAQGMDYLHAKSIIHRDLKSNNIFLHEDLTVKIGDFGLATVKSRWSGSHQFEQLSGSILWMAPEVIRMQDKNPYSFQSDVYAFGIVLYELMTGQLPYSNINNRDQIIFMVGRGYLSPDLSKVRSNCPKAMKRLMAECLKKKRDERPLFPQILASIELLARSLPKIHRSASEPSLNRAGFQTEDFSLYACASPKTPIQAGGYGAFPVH
Structure (SMILES),IC50 [1] [nM],IC50 [2] [nM],solubility thermodynamic [3] [µg/mL],Activity (Mus musculus)
NCCCn1cc(-c2ccc3c(c2)CC/C3=N\O)c(-c2ccncc2)n1,0.39,20,–,–
Cn1cc(-c2ccc3c(c2)Cc2c[nH]nc2-3)c(-c2ccncc2)n1,1.5,1900,–,–
Cn1ncc(-c2ccc3c(c2)CC/C3=N\O)c1-c1ccncc1,0.48,165,–,–
Cn1cc(-c2ccc3c(c2)CC/C3=N\O)c(-c2ccc3c(cnn3C)c2)n1,970,–,–,–
O/N=C1\CCc2cc(-c3cn(C4CCNCC4)nc3-c3ccncc3)ccc21,0.03,9,52,inactive
Cn1cc(-c2ccc3c(c2)C(=O)NC3)c(-c2ccncc2)n1,68.4,–,–,–
CN1CCC(n2cc(-c3ccc4c(c3)CC/C4=N\O)c(-c3ccncc3)n2)CC1,0.34,10,–,–
O/N=C1\CCc2cc(-c3cn(CC4CCCNC4)nc3-c3ccncc3)ccc21 (stereo unspecified),0.85,154,–,–
O/N=C1\CCc2cc(-c3cn([C@H]4CCC[C@H]4O)nc3-c3ccncc3)ccc21 (relative stereo),3.91,245,–,–
O/N=C1\CCc2cc(-c3cn(C4CCCC4)nc3-c3ccncc3)ccc21,3.46,57,–,–
O/N=C1\CCc2cc(-c3cn([C@@H]4CCC[C@@H](O)C4)nc3-c3ccncc3)ccc21 (relative stereo),0.09,17,–,–
OCCn1cc(-c2ccc3c(c2)CC/C3=N\O)c(-c2ccncc2)n1,–,–,76,Active
O/N=C1\CCc2cc(-c3cn(CC4CCNCC4)nc3-c3ccncc3)ccc21,1.2,332,–,–
Cn1cc(-c2ccc3c(c2)CC/C3=N\O)c(-c2cnco2)n1,4.1,2400,–,–
Cn1cc(-c2ccc3cn[nH]c3c2)c(-c2ccncc2)n1,70,–,–,–
O/N=C1\CCc2cc(-c3cn([C@H]4CCC[C@@H]4O)nc3-c3ccncc3)ccc21 (relative stereo),0.33,37,–,–
CN(C)CCCn1cc(-c2ccc3c(c2)CC/C3=N\O)c(-c2ccncc2)n1,0.47,122,–,–
OCC(O)Cn1cc(-c2ccc3c(c2)CC/C3=N\O)c(-c2ccncc2)n1 (stereo unspecified),0.87,22,–,–
Cn1cc(-c2ccc(/C(N)=N\O)cc2)c(-c2ccncc2)n1,18.4,20000,–,–

Structure (SMILES),IC50 [1] [nM],IC50 [2] [nM],solubility thermodynamic [3] [µg/mL],Activity (Mus musculus)
CN(C)CCn1cc(-c2ccc3c(c2)CC/C3=N\O)c(-c2ccncc2)n1,4.02,607,–,–
COCCn1cc(-c2ccc3c(c2)CC/C3=N\O)c(-c2ccncc2)n1,1.16,569,–,–
Cn1cc(-c2ccc3c(c2)CN/C3=N/O)c(-c2ccncc2)n1,< 2,56,590,–
Cc1c[nH]nc1-c1ccc(-c2cn(C)nc2-c2ccncc2)cc1,4.4,18000,–,–
Cn1cc(-c2ccc3c(c2)CCN/C3=N/O)c(-c2ccncc2)n1,16,10000,–,–
CNC1CCCC(n2cc(-c3ccc4c(c3)CC/C4=N\O)c(-c3ccncc3)n2)C1 (stereo unspecified),0.23,18,–,–
Cn1cc(-c2ccc3c(c2)CC/C3=N\O)c(-c2ccncc2)n1,0.02,33,–,–
O/N=C1\CCc2cc(-c3c[nH]nc3-c3ccncc3)ccc21,0.15,53,–,–
Cn1cc(-c2ccc3c(c2)CC/C3=N\O)c(-c2ccnc(O)c2)n1,2.9,800,–,–
NCCn1cc(-c2ccc3c(c2)CC/C3=N\O)c(-c2ccncc2)n1,2.4,119,–,–
CCn1cc(-c2ccc3c(c2)CC/C3=N\O)c(-c2ccncc2)n1,0.57,18,–,–
Cn1cc(-c2ccc3c(c2)CC/C3=N\O)c(-c2cccnc2)n1,434,–,–,–
Cn1cc(-c2ccc(-c3cc[nH]n3)cc2)c(-c2ccncc2)n1,68.4,–,–,–
O/N=C1\CCc2cc(-c3cn([C@@H]4CCC[C@H](O)C4)nc3-c3ccncc3)ccc21 (relative stereo),0.04,7,3,Active
O/N=C1\CCc2cc(-c3cn(C4CCOCC4)nc3-c3ccncc3)ccc21,0.22,48,–,–
Cn1cc(-c2ccc3c(c2)CC/C3=N\O)c(-c2ccncn2)n1,3.1,1500,–,–
OCCCn1cc(-c2ccc3c(c2)CC/C3=N\O)c(-c2ccncc2)n1,0.05,26,–,–
OCC(CO)n1cc(-c2ccc3c(c2)CC/C3=N\O)c(-c2ccncc2)n1,0.56,171,–,–
Cn1cc(-c2ccc3c(c2)CC/C3=N\O)c(-c2ccnc(N)c2)n1,2.1,1000,–,–
